In US8106044B2, “8-{4-[3-(5-fluoro-1H-indol-3-yl)-propyl]-piperazin-1-yl}-2-methyl-4H-benzo[1,4]oxazin-3-one mesylate with high affinity for the dopamine D2 receptor and the serotonin reuptake site” (Solvay Pharmaceuticals B.V., priority 2001, dated 2012):
Where a name gives a salt, the structure may show the parent alone.

How the values were obtained:
solubility in water = assay type: physicochemical; conditions: in comparison with the free base
bio-availability = conditions: in vivo

- bio-availability (bio-availability): good
SMILES: CC1Oc2c(cccc2N2CCN(CCCc3c[nH]c4ccc(F)cc34)CC2)NC1=O (centres unmarked) [mesylate, 8-{4-[3-(5-fluoro-1H-indol-3-yl)-propyl]-piperazin-1-yl}-2-methyl-4H-benzo[1,4]oxazin-3-one mesylate]
- solubility in water (solubility in water): much better soluable in water than the free base
